Results published in ChEMBL document CHEMBL1255348, “Susceptibility testing of anidulafungin and voriconazole alone and in combination against conidia and hyphae of Aspergillus spp. under hypoxic conditions” (2008).
In brackets after ≈: the same amount, converted by molar mass. *1 amine or outer side, *2 acyl side, *3 side chain or, on linkers, in order; H or OH if unused. Where a SMILES comes first, the peptide text is derived from it. Bridges are numbered along the chain shown (N, C = ends). [ ]: non-standard residue; d: D form. The star is where a group is joined. pTerphenylCO(4''-OnC5H11) = CCCCCOc1ccc(-c2ccc(-c3ccc(C(=O)*)cc3)cc2)cc1; Orn(4R-OH,5R-OH) = O=C([C@H](C[C@@H](O)[C@@H](O)N[*:3])N[*:1])[*:2]; hTyr(3S-OH,4S-OH) = N[C@H](C(=O)O)[C@H](O)[C@@H](O)c1ccc(O)cc1; Pro(3S-OH,4S-Me) = C[C@H]1CN[C@H](C(=O)O)[C@H]1O; Hyp = O=C(O)[C@@H]1C[C@@H](O)CN1

What was measured:
Assay type in all cases: functional
Aspergillus terreus [1] = test: Antimicrobial activity against Aspergillus terreus hyphae isolated from aspergillosis patient after 48 hrs under hypoxic condition by broth microdilution method in presence of voriconazole
Aspergillus niger [2] = test: Antimicrobial activity against Aspergillus niger conidia isolated from aspergillosis patient after 48 hrs under hypoxic condition by broth microdilution method
Aspergillus niger [3] = test: Antimicrobial activity against Aspergillus niger conidia isolated from aspergillosis patient after 48 hrs under hypoxic condition by broth microdilution method in presence of voriconazole
Aspergillus flavus [4] = test: Antimicrobial activity against Aspergillus flavus hyphae isolated from aspergillosis patient after 48 hrs under hypoxic condition by broth microdilution method
Aspergillus fumigatus [5] = test: Antimicrobial activity against Aspergillus fumigatus hyphae isolated from aspergillosis patient after 48 hrs under hypoxic condition by broth microdilution method in presence of voriconazole
Aspergillus fumigatus [6] = test: Antimicrobial activity against Aspergillus fumigatus conidia isolated from aspergillosis patient after 48 hrs under hypoxic condition by broth microdilution method
Aspergillus flavus [7] = test: Antimicrobial activity against Aspergillus flavus conidia isolated from aspergillosis patient after 48 hrs under hypoxic condition by broth microdilution method
Aspergillus fumigatus [8] = test: Antimicrobial activity against Aspergillus fumigatus conidia isolated from aspergillosis patient after 48 hrs under hypoxic condition by broth microdilution method in presence of voriconazole
Aspergillus terreus [9] = test: Antimicrobial activity against Aspergillus terreus conidia isolated from aspergillosis patient after 48 hrs under hypoxic condition by broth microdilution method
Aspergillus flavus [10] = test: Antimicrobial activity against Aspergillus flavus hyphae isolated from aspergillosis patient after 48 hrs under hypoxic condition by broth microdilution method in presence of voriconazole
Aspergillus niger [11] = test: Antimicrobial activity against Aspergillus niger hyphae isolated from aspergillosis patient after 48 hrs under hypoxic condition by broth microdilution method
Aspergillus terreus [12] = test: Antimicrobial activity against Aspergillus terreus conidia isolated from aspergillosis patient after 48 hrs under hypoxic condition by broth microdilution method in presence of voriconazole
Aspergillus terreus [13] = test: Antimicrobial activity against Aspergillus terreus hyphae isolated from aspergillosis patient after 48 hrs under hypoxic condition by broth microdilution method
Aspergillus niger [14] = test: Antimicrobial activity against Aspergillus niger hyphae isolated from aspergillosis patient after 48 hrs under hypoxic condition by broth microdilution method in presence of voriconazole
Aspergillus fumigatus [15] = test: Antimicrobial activity against Aspergillus fumigatus hyphae isolated from aspergillosis patient after 48 hrs under hypoxic condition by broth microdilution method
Aspergillus flavus [16] = test: Antimicrobial activity against Aspergillus flavus conidia isolated from aspergillosis patient after 48 hrs under hypoxic condition by broth microdilution method in presence of voriconazole

CCCCCOc1ccc(-c2ccc(-c3ccc(C(=O)N[C@H]4C[C@@H](O)[C@@H](O)NC(=O)[C@@H]5[C@@H](O)[C@@H](C)CN5C(=O)[C@H]([C@@H](C)O)NC(=O)[C@H]([C@H](O)[C@@H](O)c5ccc(O)cc5)NC(=O)[C@@H]5C[C@@H](O)CN5C(=O)[C@H]([C@@H](C)O)NC4=O)cc3)cc2)cc1 [ANIDULAFUNGIN] ({pTerphenylCO(4''-OnC5H11)}-[Orn(4R-OH,5R-OH)]T[Hyp][hTyr(3S-OH,4S-OH)]T[Pro(3S-OH,4S-Me)]; lactam 1-C)
fractional inhibitory concentration index (FICI) (Aspergillus terreus [1]): 0.8 | MIC (Aspergillus niger [2]): 0.008 µg/mL (≈ 0.00702 µM) | fractional inhibitory concentration index (FICI) (Aspergillus niger [3]): 0.5 | MIC (Aspergillus flavus [4]): 0.03 µg/mL (≈ 0.0263 µM) | fractional inhibitory concentration index (FICI) (Aspergillus fumigatus [5]): 1 | MIC (Aspergillus fumigatus [6]): 0.01 µg/mL (≈ 0.00877 µM) | MIC (Aspergillus flavus [7]): 0.06 µg/mL (≈ 0.0526 µM) | fractional inhibitory concentration index (FICI) (Aspergillus fumigatus [8]): 0.7 | MIC (Aspergillus terreus [9]): 0.01 µg/mL (≈ 0.00877 µM) | fractional inhibitory concentration index (FICI) (Aspergillus flavus [10]): 1 | MIC (Aspergillus niger [11]): 0.01 µg/mL (≈ 0.00877 µM) | fractional inhibitory concentration index (FICI) (Aspergillus terreus [12]): 0.9 | MIC (Aspergillus terreus [13]): 0.01 µg/mL (≈ 0.00877 µM) | fractional inhibitory concentration index (FICI) (Aspergillus niger [14]): 0.7 | MIC (Aspergillus fumigatus [15]): 0.03 µg/mL (≈ 0.0263 µM) | fractional inhibitory concentration index (FICI) (Aspergillus flavus [16]): 0.7

C[C@@H](c1ncncc1F)[C@](O)(Cn1cncn1)c1ccc(F)cc1F [VORICONAZOLE]
MIC (Aspergillus niger [2]): 1 µg/mL (≈ 2.86 µM) | MIC (Aspergillus flavus [4]): 2 µg/mL (≈ 5.73 µM) | MIC (Aspergillus fumigatus [6]): 0.5 µg/mL (≈ 1.43 µM) | MIC (Aspergillus flavus [7]): 1 µg/mL (≈ 2.86 µM) | MIC (Aspergillus terreus [9]): 1 µg/mL (≈ 2.86 µM) | MIC (Aspergillus niger [11]): 1 µg/mL (≈ 2.86 µM) | MIC (Aspergillus terreus [13]): 1 µg/mL (≈ 2.86 µM) | MIC (Aspergillus fumigatus [15]): 1 µg/mL (≈ 2.86 µM)
